Experimental data from US20130164792A1, “METHOD FOR PRODUCING CRYSTALS OF MUTIVALENT METAL SALT OF (2R, 4R) MONATIN” (Ajinomoto Co., Inc., priority 2011, published 2013).

Assays:
[1] = Measurement of solubility of Monatin metal salt in water; assay type: physicochemical; conditions: 1 g salt added to 1 g water, stirred at 25° C., filtrate analyzed by HPLC
Method: Solubility of a (2S,4R)Monatin potassium salt and a (2R,4R)Monatin potassium salt in water (H2O) was measured. 1 g of the (2S,4R)Monatin potassium salt or 1 g of the (2R,4R)Monatin potassium salt was added to 1 g of the water, the mixture was stirred at 25° C., a slurry was filtrated out, and the resulting filtrate was analyzed by HPLC. […] The solubility of the (2R,4R)Monatin potassium salt was higher than the solubility of the (2S,4R)Monatin potassium salt.
Then, Solubility of a (2S,4R)Monatin magnesium salt and a (2R,4R)Monatin magnesium salt in the water was measured. The solubility was measured in the same manner as above. For the (2S,4R)Monatin magnesium salt, firstly, the same amount of magnesium chloride was added to the (2S, 4R)Monatin potassium salt, and then ethanol was further added thereto. Then, the resulting slurry was filtrated and the wet crystal was dried under reduced pressure to prepare the (2S,4R)Monatin magnesium salt. For the (2R, 4R)Monatin magnesium salt, firstly, the same amount of magnesium chloride was added to the (2R,4R)Monatin potassium salt, and then methanol was further added thereto. Then, the resulting slurry was filtrated and the wet crystal was dried under reduced pressure to prepare the (2R, 4R)Monatin magnesium salt.

[2] = Patent Literature 1; cited from earlier work
[3] = Isomerization reaction using (2S,4R)Monatin or (2R,4R)Monatin as substrate with purified racemase; assay type: biochemical; conditions: 50 μM PLP, 100 mM Tris-HCl (pH 8.0), 0.72 mg/mL enzyme, 25° C., 15 minutes, 1 U = 1 μmol Monatin isomerized per minute
Method: A reaction was carried out for 15 minutes using the purified racemase under the following condition. The reaction was carried out in 0.1 mL using an Eppendorf tube. After the reaction was terminated, an equal amount of a reaction stopping solution, 200 mM sodium citrate solution (pH 4.5) was added to the sample. HPLC was used for the analysis.
Reaction condition: 20 mM (2S,4R)Monatin or (2R,4R)Monatin, 50 μM PLP, 100 mM Tris-HCl (pH 8.0), 0.72 mg/mL racemase purified enzyme, 25° C., 120 rpm.
The (2S,4R)Monatin and the (2R,4R)Monatin were quantified by HPLC analysis. An analysis condition is as shown below.
Mobile phase: 20 mM KH2PO4/acetonitrile=100/5 Flow rate: 1.0 mL/minute Column temperature: 40° C.

Molecule	solubility in water [1] [% by weight]	further results
N[C@@H](C[C@](O)(Cc1c[nH]c2ccccc12)C(=O)O)C(=O)[O-].N[C@@H](C[C@](O)(Cc1c[nH]c2ccccc12)C(=O)O)C(=O)[O-].[Mg+2] [(2S,4R)Monatin magnesium salt]	14.5	
N[C@@H](C[C@@](O)(Cc1c[nH]c2ccccc12)C(=O)O)C(=O)O (single isomer, unassigned) [(2S,4S) isomer of 4-hydroxy-4-(3-indolylmethyl)-2-aminoglutaric acid]		sweetness compared with sucrose [2]: several hundreds times sweeter than sucrose
Rac39: racemase (SEQ ID NO:2) with C-terminal His tag, expressed in E. coli, converts (2S,4R)Monatin into (2R,4R)Monatin (protein, C-terminal His tag; Obtained from environmental sample) MAETNLHKKINIEMHFDNLVSNFEKIRKLNNENVDVADKVIPVVKANAYNFGVYDITKTFLSMKEPQTKFFVFSLEEGIELRKFFPSIERIFVIMGALENDAELFKKYNLTPVVNSFYQLEVCKKHNIKNIVLQFNTGMNRNGFEVKELRKVKQICDSEKFNVLMVMSHFACSDNMASEVNAYQINEYKKVARVFNDKKIIKSFPATFGILNFNTINGLVNSFRPGRLYYGFLPKEGYDKNLFSVYVYLSKDKEGNIILPFGKEDGIDYGEQAYILVDKNKAYVKQVDSHKVILDTNDKTLVGKKVYLIKNGMGYDEFKEQSKQDLLTFFGKIFKNCDKNKNLCNINATRKRAKKDNKFVPKAIFKKDAKGQYTQYTTTLFEKREVSADGIVGYDATRAVKKGDKLGVIFNGHMDGFYQPMSNKHVFVYVKNKYKQLIPCEFYGLISSDQAVIKIPNDEFDNIEYGAKVVVFDKNHPITLFEQATGVSRDELFYGLDKTYRIAEQK		activity to form the (2S,4R)Monatin from the (2R,4R)Monatin ([3]; 20 mM (2R,4R)Monatin): 0.09 U/mg; activity to form the (2R,4R)Monatin from the (2S,4R)Monatin ([3]; 20 mM (2S,4R)Monatin): 0.14 U/mg

Second part, led by results:

solubility in water [1] [% by weight]	Molecule	further results
37.8	N[C@H](C[C@](O)(Cc1c[nH]c2ccccc12)C(=O)O)C(=O)[O-].[K+] [(2R,4R)Monatin potassium salt]	
20.1	N[C@@H](C[C@](O)(Cc1c[nH]c2ccccc12)C(=O)O)C(=O)[O-].[K+] [(2S,4R)Monatin potassium salt]	
1.6	N[C@H](C[C@](O)(Cc1c[nH]c2ccccc12)C(=O)O)C(=O)[O-].N[C@H](C[C@](O)(Cc1c[nH]c2ccccc12)C(=O)O)C(=O)[O-].[Mg+2] [(2R,4R)Monatin magnesium salt]	
